Data published in patent US20020197670A1, “Membrane associated progesterone receptor” (priority 2001, published 2002).

Assays:
membrane PR in HAEC = assay: Fluorescent membrane labeling of HAEC at 4° C.; assay type: cell-based, human; details: for fluorescent membrane labeling / membrane binding: 4° C. (cells impermeable), FIG. 13A
Experimental: Fluorescent membrane labeling studies were performed with both ligand (progesterone conjugated to BSA) and with antibody C19 at 4° C. Experimentation at cold temperatures keeps the cells impermeable; thus, ligand or antibody cannot enter the cell, and specific binding is restricted to the membrane.
In FIG. 13B, a light microscopy image of the same field as in FIG. 13A is shown to illustrate the position of the cells.
Controls used for these experiments include exposure with BSA and the fluorescent tag in the absence of progesterone for the ligand binding study and use of peptide neutralization for the antibody labeling study. […] Approximately 10% of all cells show positive staining. This percentage has been found by other investigators in experiments with sperm. The reason for this low percentage of staining is not yet clear. One possibility includes differential expression of the membrane PR during the cell cycle.

[1] = system: Aortic endothelial cells (HAEC); assay: Calcium response of HAEC to progesterone (fluo-3AM fluorescence); assay type: cell-based, human; details: progesterone 50 μM
Experimental: Aortic endothelial cells were cultured in 100 cm petri dishes. All solutions including washes contained probenecid, a chemical that minimizes leakage of fluorophore from the cells. The medium contained BSA, fluo-3-[…] (fluo-3AM), and pluronic F-127, an agent that facilitates diffusion of fluorophore through cell membranes. The cells were incubated for 1 hour at RT. Following incubation, the cells were washed several times and then treated with trypsin. After washing, the cells were enumerated by counting in a hemacytometer and the cell number was adjusted to a predetermined value. Progesterone (50 μM) was added to cell suspensions just prior to fluorescence measurement. An aliquot of the cell suspension was placed in a cuvette and measured in a SLM-8000C fluorescence spectrophotometer. The cells were excited at 504 nm and emitted fluorescence measured at 526 nm. The data (not shown) establishes an immediate 1.5-fold increase in calcium influx with exposure to progesterone. Since this reaction occurred within 2-3 seconds, it is clear that this is a nongenomic response to a sex steroid.

| Molecule | fluorescent membrane labeling / membrane binding (membrane PR in HAEC) | increase in calcium influx ([1]; HAEC suspension, fluo-3AM, excitation 504 nm, emission 526 nm, data not shown) [fold] | time within which the calcium reaction occurred ([1]; HAEC) [s] | cells showing positive staining for the membrane PR (membrane PR in HAEC; fluorescent membrane labeling, 4° C., FIGS. 13A-13D) |
| --- | --- | --- | --- | --- |
| progesterone conjugated to BSA: progesterone-conjugated bovine serum albumin-fluorescein isothiocyanate (Sigma), ligand for fluorescent membrane labeling | staining of the membrane is well seen |  |  |  |
| CC(=O)[C@H]1CC[C@H]2[C@@H]3CCC4=CC(=O)CC[C@]4(C)[C@H]3CC[C@]12C [progesterone, Progesterone] | specific membrane binding | 1.5 | 2 to 3 | Approximately 10% |
